Test [1] deals with Phosphoglycerate mutase 1 (Homo sapiens, UniProt P18669). Nature of the test: Inhibition of PGAM1 (unknown origin).
The test system of another test is NCI-H1299. Nature of the test: Antiproliferative activity against human NCI-H1299 cells assessed as inhibition of cell proliferation. Type of test: functional, cell-based.

Here are results for 20 compounds from ChEMBL document CHEMBL4706677, “Design, synthesis, and biological evaluation of 1,3,6,7-tetrahydroxyxanthone derivatives as phosphoglycerate mutase 1 inhibitors” (Bioorg Med Chem Lett, 2021).

SMILES strings stand for the structures.

Phosphoglycerate mutase 1, sequence (P18669 whole entry): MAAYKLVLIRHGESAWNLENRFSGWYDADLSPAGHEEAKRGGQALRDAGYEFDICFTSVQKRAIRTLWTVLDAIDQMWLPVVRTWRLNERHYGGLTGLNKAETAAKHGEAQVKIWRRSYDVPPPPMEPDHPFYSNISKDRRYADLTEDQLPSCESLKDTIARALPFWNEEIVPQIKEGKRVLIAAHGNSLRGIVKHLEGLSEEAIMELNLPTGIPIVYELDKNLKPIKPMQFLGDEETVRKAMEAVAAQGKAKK

In turn, `COc1c(OCCN2CCN(C)CC2)cc2oc3cc(OCCN4CCN(C)CC4)c(CC=C(C)C)c(O)c3c(=O)c2c1CC=C(C)C` displayed an IC50 in test [1] above 20 µM.
Still for that read-out and setting: the figure for `COc1c(OCCN(C)C)cc2oc3cc(OCCN(C)C)c(CC=C(C)C)c(O)c3c(=O)c2c1CC=C(C)C` is above 20 µM.
In test [1], `O=c1c2c(O)cc(O)cc2oc2cc(O)c(O)c(CCCc3ccccc3)c12` displayed an IC50 of 1.5 µM. Moreover, in the test with NCI-H1299, the 50% effective concentration (EC50) came out at 41.6 µM.
`COc1c(OCC(=O)N(C)C)cc2oc3cc(OCC(=O)N(C)C)c(CC=C(C)C)c(O)c3c(=O)c2c1CC=C(C)C`: the IC50 in test [1] is above 20 µM.
With `CCCCOc1cc(O)cc2oc3cc(O)c(O)cc3c(=O)c12`, inhibition in test [1] was half-maximal at 12.8 µM (IC50). Besides, the EC50 in the test with NCI-H1299 worked out at 60 µM.
For `CCCCC=CCc1c(O)c(O)cc2oc3cc(O)cc(O)c3c(=O)c12` the same measures were 2.8 µM and 13.5 µM.
Consider `COc1cc(O)c2c(=O)c3c(CCCc4ccccc4)c(O)c(OC)cc3oc2c1`, for which, in test [1], the IC50 was above 20 µM.
For the compound `COc1c(OC(=O)NC(C)C)cc2oc3cc(OC(=O)NC(C)C)c(CC=C(C)C)c(O)c3c(=O)c2c1CC=C(C)C`, the concentration for half-maximal inhibition (IC50) in test [1] is above 20 µM.
As to `CC(C)=CCc1c(O)cc2oc3cc(O)c(O)c(CC=C(C)C)c3c(=O)c2c1O`, 1.9 µM corresponded to half-maximal inhibition in test [1] (IC50). For the same compound, the EC50 with NCI-H1299 stood at 2.2 µM.
For the compound `COc1c(O)cc2oc3cc(O)c(CC=C(C)C)c(O)c3c(=O)c2c1CC=C(C)C` [MANGOSTIN], half-maximal inhibition in test [1] (IC50) was put at 7.2 µM.
`CCNC(=O)Oc1cc2oc3cc(OC(=O)NCC)c(OC)c(CC=C(C)C)c3c(=O)c2c(O)c1CC=C(C)C`: the IC50 in test [1] was above 20 µM.
Regarding `O=C1c2ccccc2C(=O)c2c1cc(S(=O)(=O)Nc1ccc(C(F)(F)F)cc1)c(O)c2O`, in the test on NCI-H1299, the EC50 amounted to 26.2 µM.
In turn, `COc1c(OCCO)cc2oc3cc(OCCO)c(CC=C(C)C)c(O)c3c(=O)c2c1CC=C(C)C` came in with a half-inhibitory concentration (IC50) in test [1] above 20 µM.
For `CCCCCCCCOc1cc(O)cc2oc3cc(O)c(O)cc3c(=O)c12`, 2.8 µM corresponded to half-maximal inhibition in test [1] (IC50). In the test with NCI-H1299, the EC50 came to 3.4 µM.
For `CC(C)=CCc1c(O)c(O)cc2oc3cc(O)cc(O)c3c(=O)c12` the same measures were 3.4 µM and 47.7 µM.
In turn, `O=c1c2cc(O)c(O)cc2oc2cc(O)cc(OCCCCN3CCc4ccccc43)c12` gave an IC50 in test [1] of 5.7 µM. Besides, the EC50 in the test on NCI-H1299 is 28.1 µM.
`O=C(CCCOc1cc(O)cc2oc3cc(O)c(O)cc3c(=O)c12)N1CCCCC1` came in with a 50% inhibitory concentration (IC50) in test [1] above 20 µM.
Same read-out and setting: the figure for `O=c1c2cc(O)c(O)cc2oc2cc(O)cc(OCCCCN3CCCCC3)c12` is above 20 µM.
In the case of `O=c1c2ccccc2oc2ccccc12` [XANTHONE], the IC50 in test [1] amounted to 0.5 µM.
Same read-out and setting: the result for `CCCc1c(O)c(O)cc2oc3cc(O)cc(O)c3c(=O)c12` reads 20 µM.
